Results: patent US9828366B2, “Bicyclic derivatives and pharmaceutical composition including the same” (HANMI PHARM. CO., LTD., priority 2014, dated 2017)

Tested on: C57BL/6 male mice
Test: Urinary glucose excretion test (UGE test)
Type: in vivo
Settings: 2 g/kg glucose after 30 minutes, urine collected for 24 hours
Method: The pharmaceutical efficacies of the compounds prepared in the Examples were investigated by a urinary glucose excretion test using C57BL/6 male mice (8-week-old, prepared and supplied from Orient Chemical Co. Ltd.).
Two mice were used in each group. The mice were fasted for 16 hours, and the compound of each of the Examples [10 mg/kg of the compound of Examples 1 to 12; and 3 mg/kg of the compound of Examples 13 to 38] was dissolved in a vehicle [a mixed solution of 5% 1-methyl-2-pyrrolidinone, 20% PEG, and 75% 20 mM sodium diphosphate], and orally administered to the mice. After 30 minutes, 2 g/kg of glucose was orally administered to the mice in all the groups. Thereafter, the mice were immediately put into a metabolic cage, and urine was collected for 24 hours. The mice were freely fed an hour after the administration of glucose.
The results obtained from the test, that is, the results obtained by measuring urinary glucose excretion in the C57BL/6 male mice according to the compounds of the Examples, are listed in Table 5.

[1] = 10 mg/kg oral (Examples 1 to 12)
[2] = 3 mg/kg oral (Examples 13 to 38)

With `OC[C@H]1O[C@@H](c2cc3c(c(Cc4ccc(O)cc4)c2)OCC3)[C@H](O)[C@@H](O)[C@@H]1O` [Example 11, (2S,3R,4R,5S,6R)-2-(7-(4-hydroxybenzyl)-2,3-dihydrobenzofuran-5-yl)-6-(hydroxymethyl)tetrahydro-2H-pyran-3,4,5-triol] the UGE [1] was 3.0 mg/20 g/24 hr.
`OC[C@H]1O[C@@H](c2cc3c(c(Cc4ccc(OC(F)(F)F)cc4)c2)OCC3)[C@H](O)[C@@H](O)[C@@H]1O` [Example 5, (2R,3S,4R,5R,6S)-2-hydroxymethyl-6-(7-(4-trifluoromethoxybenzyl)-2,3-dihydrobenzofuran-5-yl)tetrahydro-2H-pyran-3,4,5-triol] showed a UGE [1] of 3.7 mg/20 g/24 hr.
`CS(=O)(=O)CCCOc1ccc(Cc2cc(C3O[C@H](CO)[C@@H](O)[C@H](O)[C@H]3O)cc3c2OCC3)cc1` (stereo partly shown) [Example 12] showed a UGE [1] of 0 mg/20 g/24 hr.
In the case of `CCOc1ccc(Cc2cc([C@@H]3O[C@H](CO)[C@@H](O)[C@H](O)[C@H]3O)cc3c2CCC3)cc1` [Example 13, (2S,3R,4R,5S,6R)-2-(7-(4-ethoxybenzyl)-2,3-dihydro-1H-inden-5-yl)-6-(hydroxymethyl)tetrahydro-2H-pyran-3,4,5-triol], the UGE [2] is reported as 1.7 mg/20 g/24 hr.
`CCOc1ccc(Cc2cc([C@@H]3O[C@H](CO)[C@@H](O)[C@H](O)[C@H]3O)cc3c2OCC3)cc1F` [Example 9, (2S,3R,4R,5S,6R)-2-(7-(4-ethoxy-3-fluorobenzyl)-2,3-dihydrobenzofuran-5-yl)-6-(hydroxymethyl)tetrahydro-2H-pyran-3,4,5-triol] showed a UGE [1] of 4.6 mg/20 g/24 hr.
`OC[C@H]1O[C@@H](c2cc3c(c(Cc4ccc(F)cc4)c2)OCC3)[C@H](O)[C@@H](O)[C@@H]1O` [Example 6, (2S,3R,4R,5S,6R)-2-(7-(4-fluorobenzyl)-2,3-dihydrobenzofuran-5-yl)-6-(hydroxymethyl)tetrahydro-2H-pyran-3,4,5-triol] was tested, and the UGE [1] was 3.9 mg/20 g/24 hr.
In the case of `Cc1ccc(Cc2cc([C@@H]3O[C@H](CO)[C@@H](O)[C@H](O)[C@H]3O)cc3c2CCC3)c(F)c1` [Example 26, (2S,3R,4R,5S,6R)-2-(7-(2-fluoro-4-methylbenzyl)-2,3-dihydro-1H-inden-5-yl)-6-(hydroxymethyl)tetrahydro-2H-pyran-3,4,5-triol], the UGE [2] is reported as 4.8 mg/20 g/24 hr.
`CCOc1ccc(Cc2cc([C@@H]3O[C@H](CO)[C@@H](O)[C@H](O)[C@H]3O)cc3c2OCC3)c(F)c1` [Example 10, (2S,3R,4R,5S,6R)-2-(7-(4-ethoxy-2-fluorobenzyl)-2,3-dihydrobenzofuran-5-yl)-6-(hydroxymethyl)tetrahydro-2H-pyran-3,4,5-triol] gave a UGE [1] of 3.2 mg/20 g/24 hr.
With `CCCc1ccc(Cc2cc([C@@H]3O[C@H](CO)[C@@H](O)[C@H](O)[C@H]3O)cc3c2OCC3)cc1` [Example 3, (2R,3S,4R,5R,6S)-2-hydroxymethyl-6-(7-(4-n-propylbenzyl)-2,3-dihydrobenzofuran-5-yl)-tetrahydro-2H-pyran-3,4,5-triol] the UGE [1] was 3.7 mg/20 g/24 hr.
`OC[C@H]1O[C@@H](c2cc3c(c(Cc4ccc5c(c4)OCCO5)c2)OCC3)[C@H](O)[C@@H](O)[C@@H]1O` [Example 7, (2S,3R,4R,5S,6R)-2-(7-((2,3-dihydrobenzo[b][1,4]dioxin-6-yl)methyl)-2,3-dihydrobenzofuran-5-yl)-6-(hydroxymethyl)tetrahydro-2H-pyran-3,4,5-triol] showed a UGE [1] of 2.8 mg/20 g/24 hr.
Work on `OC[C@H]1O[C@@H](c2cc3c(c(Cc4ccc(C(F)(F)F)cc4)c2)OCC3)[C@H](O)[C@@H](O)[C@@H]1O` [Example 4, (2R,3S,4R,5R,6S)-2-hydroxymethyl-6-(7-(4-trifluoromethylbenzyl)-2,3-dihydrobenzofuran-5-yl)tetrahydro-2H-pyran-3,4,5-triol] yielded a UGE [1] of 4.6 mg/20 g/24 hr.
`CCc1ccc(Cc2cc([C@@H]3O[C@H](CO)[C@@H](O)[C@H](O)[C@H]3O)cc3c2OCC3)cc1` [Example 2, (2S,3R,4R,5S,6R)-2-(7-(4-ethylbenzyl)-2,3-dihydrobenzofuran-5-yl)-6-hydroxymethyl-tetrahydro-2H-pyran-3,4,5-triol] gave a UGE [1] of 8.3 mg/20 g/24 hr.
In the case of `CCOc1ccc(Cc2cc([C@@H]3O[C@H](CO)[C@@H](O)[C@H](O)[C@H]3O)cc3c2CCC3)cc1F` [Example 20, (2S,3R,4R,5S,6R)-2-(7-(4-ethoxy-3-fluorobenzyl)-2,3-dihydro-1H-inden-5-yl)-6-(hydroxymethyl)tetrahydro-2H-pyran-3,4,5-triol], the UGE [2] is reported as 0.6 mg/20 g/24 hr.
`OC[C@H]1O[C@@H](c2cc3c(c(Cc4ccc(OCC5CC5)cc4)c2)OCC3)[C@H](O)[C@@H](O)[C@@H]1O` [Example 8, (2S,3R,4R,5S,6R)-2-(7-(4-(cyclopropylmethoxy)benzyl)-2,3-dihydrobenzofuran-5-yl)-6-(hydroxymethyl)tetrahydro-2H-pyran-3,4,5-triol] showed a UGE [1] of 4.3 mg/20 g/24 hr.
For `CC(C)c1ccc(Cc2cc([C@@H]3O[C@H](CO)[C@@H](O)[C@H](O)[C@H]3O)cc3c2CCC3)cc1` [Example 18, (2R,3S,4R,5R,6S)-2-(hydroxymethyl)-6-(7-(4-isopropylbenzyl)-2,3-dihydro-1H-inden-5-yl)tetrahydro-2H-pyran-3,4,5-triol], the UGE [2] was 7.0 mg/20 g/24 hr.
With `CCCc1ccc(Cc2cc([C@@H]3O[C@H](CO)[C@@H](O)[C@H](O)[C@H]3O)cc3c2CCC3)cc1` [Example 17, (2R,3S,4R,5R,6S)-2-(hydroxymethyl)-6-(7-(4-propylbenzyl)-2,3-dihydro-1H-inden-5-yl)tetrahydro-2H-pyran-3,4,5-triol] the UGE [2] was 1.0 mg/20 g/24 hr.
Work on `CCOc1ccc(Cc2cc([C@@H]3O[C@H](CO)[C@@H](O)[C@H](O)[C@H]3O)cc3c2OCC3)cc1` [Example 1, (2S,3R,4R,5S,6R)-2-(7-(4-ethoxybenzyl)-2,3-dihydrobenzofuran-5-yl)-6-hydroxymethyl-tetrahydro-2H-pyran-3,4,5-triol] yielded a UGE [1] of 1.2 mg/20 g/24 hr.
`CCOc1ccc(Cc2cc([C@@H]3O[C@H](CO)[C@@H](O)[C@H](O)[C@H]3O)cc3c2CCC3)c(F)c1` [Example 21, (2S,3R,4R,5S,6R)-2-(7-(4-ethoxy-2-fluorobenzyl)-2,3-dihydro-1H-inden-5-yl)-6-(hydroxymethyl)tetrahydro-2H-pyran-3,4,5-triol] gave a UGE [2] of 4.2 mg/20 g/24 hr.
Work on `Cc1ccc(Cc2cc([C@@H]3O[C@H](CO)[C@@H](O)[C@H](O)[C@H]3O)cc3c2CCC3)cc1F` [Example 25, (2S,3R,4R,5S,6R)-2-(7-(3-fluoro-4-methylbenzyl)-2,3-dihydro-1H-inden-5-yl)-6-(hydroxymethyl)tetrahydro-2H-pyran-3,4,5-triol] yielded a UGE [2] of 5.5 mg/20 g/24 hr.
